According to US20260167629A1, “NOVEL INDAZOLE DERIVATIVE OR PHARMACEUTICALLY ACCEPTABLE SALT THEREOF, AND USE THEREOF” (KOREA UNIVERSITY RESEARCH AND BUSINESS FOUNDATION, priority 2022, published 2026):

Tests used:
[1] = Toxicity in JIMT-1 xenograft mice (body weight, H&E of liver, kidney, lung, AST, ALT, BUN); format: in vivo, Balb/c nude mice; settings: intraperitoneally, 30 mg/kg compound 18c or 20 mg/kg compound 11k
Method: 6-week-old mice (Balb/c nude mice) were purchased and raised in an environment where they could freely access food and water. The mice were acclimated for more than 7 days, and then were transplanted with tumor cells. Tumor cells were injected subcutaneously into the mammary gland tissue of JIMT-1 breast cancer cells at a density of 3×10^6 cells/mL per individual, and when the tumor reached a size of 50 to 100 mm^3, the indazole derivative of the present disclosure was administered intraperitoneally, and the tumor growth was measured. The experimental groups were treated with either 30 mg/kg of compound 18c (formula 1-16) or 20 mg/kg of compound 11k (formula 1-7), and tumor volume, tumor weight, body weight, and the like were measured every 3 to 4 days from the time of administration until the end of the study.
To determine whether the treatment with the indazole derivatives of the present disclosure would affect normal organs, a toxicity analysis was performed.
The mouse model was sacrificed. The liver, kidney, and lung tissues were fixed in 4% paraformaldehyde for 24 hours, washed in PBS buffer, and then embedded in paraffin. Tissue samples were sectioned and stained with H&E (hematoxylin & eosin). […]

[2] = test system: Hsp90 clients in BT474 cell line; assay: Western blotting of Hsp90 clients, BT474; format: cell-based; settings: BT474, 10 μM, 72 hours
Method: To perform western blotting, BT-474 and JIMT-1 cell lines were treated with control (DMSO), compound 18c, and compound 11k at concentrations of 10 μM each for 72 hours, and then lysed in lysis buffer (30 mM NaCl, 0.5% Triton X-100, 50 mM Tris-HCl; pH 7.4) containing phosphatase and protease inhibitors. The proteins present in the supernatant were harvested. The protein concentration was measured using a Bradford protein assay kit, and 30 μg of protein was taken equally from each experimental group. These proteins were electrophoresed on SDS-Polyacrylamide gels (8-15%), and electrically transferred to a nitrocellulose membrane. The membrane was reacted with primary antibodies [pro PARP (1:1000), cleaved PARP (1:2000), cleaved caspase-3 (1:1000), cleaved caspase-7 (1:1000), β-actin (1:5000)] diluted in 5% bovine serum albumin (BSA) at 4° C. for 24 hours, followed by a secondary antibody, horseradish peroxidase (HRP)-conjugated rabbit IgG (1:3000) for 2 hours at room temperature. The signal intensity of the above proteins was checked by color development using an Enhanced Chemiluminescence Kit and x-ray film.
Western blotting was used to investigate whether Hsp90 inhibitors, compound 18c (formula 1-16) and compound 11k (formula 1-7), could downregulate the expression and activity (phosphorylation) of HER2 and HER3, which are representative clients of Hsp90, in BT474 and JIMT-1 cell lines. The expression of Akt, MEK, ERK, Bcl-2, Cyclin D1, and Survivin, which are key factors for cell survival as Hsp90 clients, was also investigated. The western blotting was performed by the method that was used in Experimental Example 2.3.
The BT474 and JIMT-1 cell lines were treated with compound 18c and compound 11k at a concentration of 10 μM for 72 hours.

MDA-MB-231 cell line = assay: MTS cell viability assay in MDA-MB-231 cell line; format: cell-based; settings: Homo sapiens, MDA-MB-231, 72 hours
Method: A HER2 positive breast cancer (HER2+BC) cell line, JIMT-1 (cell seeding numbers: 1.0 (JIMT)×10^4 cells/wells (confluency≤30%)) and a triple-negative breast cancer (TNBC) cell line, MDA-MB-231 (cell seeding numbers: 1.0 (M231)×10^4 cells/wells (confluency≤30%) were used in the experiment.
The above cell lines were cultured in Dulbecco's Modified Eagle's Medium (DMEM) or Eagle's minimum Essential Medium (MEM) each containing 10% fetal bovine serum (FBS), streptomycin-penicillin (100 U/ml), and Fungizone (0.625 μg/ml), respectively under 5% CO2, 37° C. environment.
The JIMT-1 cell line and MDA-MB-231 cell line were treated with the indazole derivatives (formulas 1-1 to 1-53) of the present disclosure at a concentration of 10 μM each for 72 hours, and then cell viability was measured using the MTS assay technique. The control group was treated with DMSO as an untreated group (0 μM) of the indazole derivative of the present disclosure.
Specifically, cells were attached to 96 well plates for 24 hours, and then treated with the indazole derivatives for 72 hours. Thereafter, the cells were chromogenized with MTS for 4 hours, and the absorbance was measured at 490 nm using a Spectramax Plus384 microplate analyzer. The significance between the control group and the experimental group was verified using an unpaired Students t-test (*p<0.01; DMSO control vs indazole series).
HER2-positive breast cancer cell lines, BT474 (cell seeding numbers: 2.0 (JIMT)×10^4 cells/wells (confluency≤30%)) sensitive to trastuzumab, and JIMT-1 (cell seeding numbers: 1.0 (JIMT)×10^4 cells/wells (confluency≤30%)) resistant to trastuzumab, and a triple-negative breast cancer cell line, MDA-MB-231 (cell seeding numbers: 1.0 (M231)×10^4 cells/wells (confluency≤30%)) were used.
The BT474, JIMT-1, and MDA-MB-231 cell lines were treated with compound 18c (formula 1-16) and compound 11k (formula 1-7) at concentrations of 0 (DMSO), 0.1, 0.5, 1, 5, 10, and 20 μM, respectively, for 72 hours, and then cell viability was measured using the MTS assay technique as explained by the description of Experimental Example 1. The cell viability experiment was performed independently three times, and the significance was verified by a One-Way Anova, Bonferroni post-hoc test (*p<0.01; DMSO control vs. compound 18c or compound 11k).
In addition, the JIMT-1 and MDA-MB-231 cell lines were treated with compound 11m (formula 1-9), 11n (formula 1-10) and compound 12k (formula 1-13) at concentrations of 0 (DMSO), 0.1, 1, 5, 10, and 20 μM, respectively, for 72 hours, and then cell viability was measured.
Meanwhile, triple-negative breast cancer cell lines MDA-MB-231 and BT549, and a mouse breast cancer cell line 4T1 were treated with compound 38 (formula 1-30) at concentrations of 0 (DMSO), 0.1, 0.5, 1, 2, 5, 10, and 20 μM for 72 hours, and then cell viability was measured.
The indazole derivative of the present disclosure was compared with the benzopyran derivative of the related art (KR 10-2304532) in terms of cell viability of the BT474, JIMT-1, and MDA-MB-231 cell lines (Table 1). In this case, the cell lines were treated with the benzopyran derivative at a concentration of 10 μM for 72 hours and the cell lines were treated with the indazole derivative at a concentration of 10 μM for 72 hours, and then the cell viability was measured.

Compound: COc1c(C(=O)Nc2ccc3c(C)nn(CCC4CCN(C)CC4)c3c2)ccc2c1C=CC(C)(C)O2 [compound 11k, 5-Methoxy-2,2-dimethyl-N-(3-methyl-1-(2-(1-methylpiperidin-4-yl)ethyl)-1H-indazol-6-yl)-2H-chromene-6-carboxamide]
- body weight [1]: maintained
- expression of HER2 and HER3 [2]: decreased
- expression of activated forms phospho-HER2 and phospho-HER3 [2]: significantly reduced
- expression of cell proliferation factors Akt, MEK, ERK, Bcl-2, Cyclin D1, and Survivin [2]: inhibited the expression
- IC50 (MDA-MB-231 cell line): 2.69 µM

Compound: COCCn1nc(NC(=O)c2ccc3c(c2OC)C=CC(C)(C)O3)c2ccccc21 [compound 18c, 5-Methoxy-N-(1-(2-methoxyethyl)-1H-indazol-3-yl)-2,2-dimethyl-2H-chromene-6-carboxamide]
- body weight [1]: maintained
- expression of HER2 and HER3 [2]: decreased
- expression of activated forms phospho-HER2 and phospho-HER3 [2]: significantly reduced
- expression of cell proliferation factors Akt, MEK, ERK, Bcl-2, Cyclin D1, and Survivin [2]: inhibited the expression
- IC50 (MDA-MB-231 cell line): 6.84 µM
